Patent US20250059198A1, “BRM DEGRADING COMPOUNDS AND ASSOCIATED METHODS OF USE” (Arvinas Operations, Inc., priority 2021, published 2025)

Target: T1, BRM (Homo sapiens, UniProt P51531)
T1 construct: Western Blot Screen of BRM Degradation in SW1573 Cells; endogenous in cells; host or cells: SW1573 cells
Assay: BRM degradation (Dmax and DC50) in SW1573 cells, Western blot screen / In-Cell Western screen
Assay type: cell-based
Conditions: overnight (18-20 hours) treatment; for Dmax: read-out: Dmax (%)** (% degraded)
Outline: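 SW1573 cells were treated with compound for 18–20 h (final 0.1% DMSO). BRM was quantified either by Western blot of RIPA lysates or by fixed-cell In-Cell Western (LI-COR, 800/680 nm), each normalised to alpha-tubulin, giving Dmax and DC50.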

T1 sequence (P51531 whole entry): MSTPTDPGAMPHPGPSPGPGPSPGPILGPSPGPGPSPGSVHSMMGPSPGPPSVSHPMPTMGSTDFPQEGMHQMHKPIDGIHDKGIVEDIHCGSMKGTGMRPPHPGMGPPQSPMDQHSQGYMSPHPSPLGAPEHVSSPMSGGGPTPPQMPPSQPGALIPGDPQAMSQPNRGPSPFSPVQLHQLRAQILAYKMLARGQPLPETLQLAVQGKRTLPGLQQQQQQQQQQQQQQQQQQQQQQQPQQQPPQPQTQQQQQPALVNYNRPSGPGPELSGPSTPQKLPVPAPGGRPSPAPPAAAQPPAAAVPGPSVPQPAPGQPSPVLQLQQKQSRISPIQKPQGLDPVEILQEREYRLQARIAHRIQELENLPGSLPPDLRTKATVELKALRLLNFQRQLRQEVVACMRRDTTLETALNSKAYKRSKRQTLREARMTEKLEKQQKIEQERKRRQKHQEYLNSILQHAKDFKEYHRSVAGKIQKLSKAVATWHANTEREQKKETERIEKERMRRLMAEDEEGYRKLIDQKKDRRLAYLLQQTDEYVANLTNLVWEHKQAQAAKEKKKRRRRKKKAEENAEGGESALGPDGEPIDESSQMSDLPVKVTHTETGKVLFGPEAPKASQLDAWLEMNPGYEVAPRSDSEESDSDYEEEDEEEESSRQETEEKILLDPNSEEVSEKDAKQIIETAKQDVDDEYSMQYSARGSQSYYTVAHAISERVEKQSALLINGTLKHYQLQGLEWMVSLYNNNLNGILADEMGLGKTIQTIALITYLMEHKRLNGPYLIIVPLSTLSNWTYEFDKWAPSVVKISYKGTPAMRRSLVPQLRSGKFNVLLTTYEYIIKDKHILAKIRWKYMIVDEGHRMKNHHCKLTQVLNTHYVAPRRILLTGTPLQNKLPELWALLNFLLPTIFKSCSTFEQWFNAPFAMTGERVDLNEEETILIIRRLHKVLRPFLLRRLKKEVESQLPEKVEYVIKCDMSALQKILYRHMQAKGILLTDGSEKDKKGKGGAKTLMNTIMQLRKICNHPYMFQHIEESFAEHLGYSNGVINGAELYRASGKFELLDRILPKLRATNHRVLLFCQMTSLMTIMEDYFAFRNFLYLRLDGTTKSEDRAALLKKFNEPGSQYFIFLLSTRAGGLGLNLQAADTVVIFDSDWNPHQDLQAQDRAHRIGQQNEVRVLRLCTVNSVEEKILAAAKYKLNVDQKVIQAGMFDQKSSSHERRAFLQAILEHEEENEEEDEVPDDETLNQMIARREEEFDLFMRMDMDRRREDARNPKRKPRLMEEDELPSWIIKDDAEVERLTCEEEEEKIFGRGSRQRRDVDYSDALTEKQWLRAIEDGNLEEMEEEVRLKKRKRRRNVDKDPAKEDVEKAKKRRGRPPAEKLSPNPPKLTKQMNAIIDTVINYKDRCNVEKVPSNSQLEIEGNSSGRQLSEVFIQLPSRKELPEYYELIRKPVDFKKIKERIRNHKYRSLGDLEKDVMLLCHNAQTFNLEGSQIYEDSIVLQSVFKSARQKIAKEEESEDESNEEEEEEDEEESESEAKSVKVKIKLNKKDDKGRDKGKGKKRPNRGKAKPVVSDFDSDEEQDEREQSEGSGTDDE

Compound | DC50 [nM] | Dmax [%]
Cc1ncsc1-c1ccc([C@H](C)NC(=O)[C@@H]2C[C@@H](O)CN2C(=O)[C@@H](c2cc(OCCN3CCC(O[C@H]4C[C@H](OC(=O)N5CCN(c6cc(-c7ccccc7O)nnc6N)CC5)C4)CC3)no2)C(C)C)cc1 [Compound 81, (1r,3r)-3-({1-[2-({5-[(2R)-1-[(2S,4R)-4-hydroxy-2-{[(1S)-1-[4-(4-methyl-1,3-thiazol-5-yl)phenyl]ethyl]carbamoyl}pyrrolidin-1-yl]-3-methyl-1-oxobutan-2-yl]-1,2-oxazol-3-yl}oxy)ethyl]piperidin-4-yl}oxy)cyclobutyl 4-[3-amino-6-(2-hydroxyphenyl)pyridazin-4-yl]piperazine-1-carboxylate] | < 2.5 | > 75
Cc1ncsc1-c1ccc([C@H](C)NC(=O)[C@@H]2C[C@@H](O)CN2C(=O)[C@@H](c2cc(N3CCC(CN4CCC5(CC4)CC(N4CCO[C@@H](C(C)(C)N6C7CCC6CN(c6cc(-c8ccccc8O)nnc6N)C7)C4)C5)CC3)no2)C(C)C)cc1 [Compound 95, (2S,4R)-1-[(2R)-2-{3-[4-({2-[(2R)-2-(2-{3-[3-amino-6-(2-hydroxyphenyl)pyridazin-4-yl]-3,8-diazabicyclo[3.2.1]octan-8-yl}propan-2-yl)morpholin-4-yl]-7-azaspiro[3.5]nonan-7-yl}methyl)piperidin-1-yl]-1,2-oxazol-5-yl}-3-methylbutanoyl]-4-hydroxy-N-[(1S)-1-[4-(4-methyl-1,3-thiazol-5-yl)phenyl]ethyl]pyrrolidine-2-carboxamide] | 2.5 to 10 | > 75
CC(C)[C@@H](C(=O)N1C[C@H](O)C[C@H]1C(=O)N[C@@H](C)c1ccc(Cl)cc1)c1cc(N2CCC(CN3CCC(O[C@H]4C[C@H](Oc5cc(N6C7CCC6CN(c6cc(-c8ccccc8O)nnc6N)C7)ccn5)C4)CC3)CC2)no1 (relative stereo) [Compound 48, (2S,4R)-N-[(1S)-1-(4-chlorophenyl)ethyl]-4-hydroxy-1-[(2R*)-3-methyl-2-{3-[4-({4-[(1rs,3rs)-3-[(4-{3-[3-amino-6-(2-hydroxyphenyl)pyridazin-4-yl]-3,8-diazabicyclo[3.2.1]octan-8-yl}pyridin-2-yl)oxy]cyclobutoxy]piperidin-1-yl}methyl)piperidin-1-yl]-1,2-oxazol-5-yl}butanoyl]pyrrolidine-2-carboxamide] | 10 to 30 | > 75
CC(C)[C@@H](C(=O)N1C[C@H](O)C[C@H]1C(=O)N[C@@H](C)c1ccc(C#N)cc1)c1cc(N2CCC(CN3CC[C@H](Oc4cc(N5C6CCC5CN(c5cc(-c7ccccc7O)nnc5N)C6)ccn4)C(F)(F)C3)CC2)no1 [Compound 146, (2S,4R)-1-[(2R)-2-[3-(4-{[(4S)-4-[(4-{3-[3-amino-6-(2-hydroxyphenyl)pyridazin-4-yl]-3,8-diazabicyclo[3.2.1]octan-8-yl}pyridin-2-yl)oxy]-3,3-difluoropiperidin-1-yl]methyl}piperidin-1-yl)-1,2-oxazol-5-yl]-3-methylbutanoyl]-N-[(1S)-1-(4-cyanophenyl)ethyl]-4-hydroxypyrrolidine-2-carboxamide] | 10 to 30 | > 75
Cc1ncsc1-c1ccc([C@H](C)NC(=O)[C@@H]2C[C@@H](O)CN2C(=O)[C@@H](c2cc(N3CCC(CN4CCC5(CC4)CC(N4CCO[C@H]([C@H](C)n6cc(C#Cc7cc(-c8ccccc8O)nnc7N)cn6)C4)C5)CC3)no2)C(C)C)cc1 [Compound 96, (2S,4R)-1-[(2R)-2-{3-[4-({2-[(2S)-2-[(1S)-1-(4-{2-[3-amino-6-(2-hydroxyphenyl)pyridazin-4-yl]ethynyl}-1H-pyrazol-1-yl)ethyl]morpholin-4-yl]-7-azaspiro[3.5]nonan-7-yl}methyl)piperidin-1-yl]-1,2-oxazol-5-yl}-3-methylbutanoyl]-4-hydroxy-N-[(1S)-1-[4-(4-methyl-1,3-thiazol-5-yl)phenyl]ethyl]pyrrolidine-2-carboxamide] | < 2.5 | > 75
Cc1ncsc1-c1ccc([C@H](C)NC(=O)[C@@H]2C[C@@H](O)CN2C(=O)[C@@H](c2cc(N3CCC(CN4CCC5(CC4)CC(N4CCN(CC6(O)CCN(c7cc(-c8ccccc8O)nnc7N)CC6)CC4)C5)CC3)no2)C(C)C)cc1 [Compound 122, (2S,4R)-1-[(2R)-2-{3-[4-({2-[4-({1-[3-amino-6-(2-hydroxyphenyl)pyridazin-4-yl]-4-hydroxypiperidin-4-yl}methyl)piperazin-1-yl]-7-azaspiro[3.5]nonan-7-yl}methyl)piperidin-1-yl]-1,2-oxazol-5-yl}-3-methylbutanoyl]-4-hydroxy-N-[(1S)-1-[4-(4-methyl-1,3-thiazol-5-yl)phenyl]ethyl]pyrrolidine-2-carboxamide] | < 2.5 | > 75
CC(C)[C@@H](C(=O)N1C[C@H](O)C[C@H]1C(=O)N[C@@H](C)c1ccc(C#N)cc1)c1cc(N2CCC(CN3CCC(O[C@H]4C[C@H](N5CCC(C(C)n6cc(C#Cc7cc(-c8ccccc8O)nnc7N)cn6)CC5)C4)CC3)CC2)no1 (stereo partly drawn) [Compound 78, (2S,4R)-N-[(1S)-1-(4-cyanophenyl)ethyl]-4-hydroxy-1-[(2R)-3-methyl-2-{3-[4-({4-[(1r,3r)-3-{4-[1-(4-{2-[3-amino-6-(2-hydroxyphenyl)pyridazin-4-yl]ethynyl}-1H-pyrazol-1-yl)ethyl]piperidin-1-yl}cyclobutoxy]piperidin-1-yl}methyl)piperidin-1-yl]-1,2-oxazol-5-yl}butanoyl]pyrrolidine-2-carboxamide] | 2.5 to 10 | > 75
Cc1ncsc1-c1ccc([C@H](C)NC(=O)[C@@H]2C[C@@H](O)CN2C(=O)[C@@H](c2cc(N3CCC(CN4CCC5(CC4)CC(C#CC(C)n4cc(-c6cc(-c7ccccc7O)nnc6N)cn4)C5)CC3)no2)C(C)C)cc1 (stereo partly drawn) [Compound 36, (2S,4R)-1-[(2R)-2-[3-(4-{[2-(3-{4-[3-amino-6-(2-hydroxyphenyl)pyridazin-4-yl]-1H-pyrazol-1-yl}but-1-yn-1-yl)-7-azaspiro[3.5]nonan-7-yl]methyl}piperidin-1-yl)-1,2-oxazol-5-yl]-3-methylbutanoyl]-4-hydroxy-N-[(1S)-1-[4-(4-methyl-1,3-thiazol-5-yl)phenyl]ethyl]pyrrolidine-2-carboxamide] | < 2.5 | > 75
Cc1ncsc1-c1ccc([C@H](C)NC(=O)[C@@H]2C[C@@H](O)CN2C(=O)[C@@H](c2cc(N3CCC(OC4CCN(C[C@H]5C[C@H](N6CCOC7(CCN(c8cc(-c9ccccc9O)nnc8N)CC7)C6)C5)CC4)CC3)no2)C(C)C)cc1 [Compound 56, (2S,4R)-4-hydroxy-N-[(1S)-1-[4-(4-methyl-1,3-thiazol-5-yl)phenyl]ethyl]-1-[(2R)-3-methyl-2-(3-{4-[(1-{[(1r,3r)-3-{9-[3-amino-6-(2-hydroxyphenyl)pyridazin-4-yl]-1-oxa-4,9-diazaspiro[5.5]undecan-4-yl}cyclobutyl]methyl}piperidin-4-yl)oxy]piperidin-1-yl}-1,2-oxazol-5-yl)butanoyl]pyrrolidine-2-carboxamide] | < 2.5 | > 75
Cc1ncsc1-c1ccc([C@H](C)NC(=O)[C@@H]2C[C@@H](O)CN2C(=O)[C@H](c2cc(N3CCC(O[C@H]4CC[C@@H](Oc5cc(N6C7CCC6CN(c6cc(-c8ccccc8O)nnc6N)C7)ccn5)CC4)CC3)no2)C(C)C)cc1 [Compound 79, (2S,4R)-4-hydroxy-N-[(1S)-1-[4-(4-methyl-1,3-thiazol-5-yl)phenyl]ethyl]-1-[(2S)-3-methyl-2-[3-(4-{[(1s,4s)-4-[(4-{3-[3-amino-6-(2-hydroxyphenyl)pyridazin-4-yl]-3,8-diazabicyclo[3.2.1]octan-8-yl}pyridin-2-yl)oxy]cyclohexyl]oxy}piperidin-1-yl)-1,2-oxazol-5-yl]butanoyl]pyrrolidine-2-carboxamide] | ≥ 30 | 
CC(C)[C@H](C(=O)N1C[C@H](O)C[C@H]1C(=O)N[C@@H](C)c1ccc(C#N)cc1)c1cc(N2CCC(OCCN3CCC(O[C@H]4C[C@H](Oc5cc(N6C7CCC6CN(c6cc(-c8ccccc8O)nnc6N)C7)ccn5)C4)CC3)CC2)no1 [Compound 152, (2S,4R)-N-[(1S)-1-(4-cyanophenyl)ethyl]-4-hydroxy-1-[(2S)-3-methyl-2-{3-[4-(2-{4-[(1r,3r)-3-[(4-{3-[3-amino-6-(2-hydroxyphenyl)pyridazin-4-yl]-3,8-diazabicyclo[3.2.1]octan-8-yl}pyridin-2-yl)oxy]cyclobutoxy]piperidin-1-yl}ethoxy)piperidin-1-yl]-1,2-oxazol-5-yl}butanoyl]pyrrolidine-2-carboxamide] | ≥ 30 | 
Cc1ncsc1-c1ccc([C@H](C)NC(=O)[C@@H]2C[C@@H](O)CN2C(=O)[C@@H](c2cc(N3CCC(CN4CCC(O)(C#C[C@H]5C[C@H](Oc6cc(N7C8CCC7CN(c7cc(-c9ccccc9O)nnc7N)C8)ccn6)C5)CC4)CC3)no2)C(C)C)cc1 [Compound 19, (2S,4R)-4-hydroxy-1-[(2R)-2-(3-{4-[(4-hydroxy-4-{2-[(1r,3r)-3-[(4-{3-[3-amino-6-(2-hydroxyphenyl)pyridazin-4-yl]-3,8-diazabicyclo[3.2.1]octan-8-yl}pyridin-2-yl)oxy]cyclobutyl]ethynyl}piperidin-1-yl)methyl]piperidin-1-yl}-1,2-oxazol-5-yl)-3-methylbutanoyl]-N-[(1S)-1-[4-(4-methyl-1,3-thiazol-5-yl)phenyl]ethyl]pyrrolidine-2-carboxamide] | < 2.5 | > 75
Cc1ncsc1-c1ccc([C@H](C)NC(=O)[C@@H]2C[C@@H](O)CN2C(=O)[C@@H](c2cc(N3CCC(CN4CCC(O[C@H]5C[C@H](N6CCN(CC7(O)CCN(c8cc(-c9ccccc9O)nnc8N)CC7)CC6)C5)CC4)CC3)no2)C(C)C)cc1 [Compound 57, (2S,4R)-4-hydroxy-N-[(1S)-1-[4-(4-methyl-1,3-thiazol-5-yl)phenyl]ethyl]-1-[(2R)-3-methyl-2-{3-[4-({4-[(1r,3r)-3-[4-({1-[3-amino-6-(2-hydroxyphenyl)pyridazin-4-yl]-4-hydroxypiperidin-4-yl}methyl)piperazin-1-yl]cyclobutoxy]piperidin-1-yl}methyl)piperidin-1-yl]-1,2-oxazol-5-yl}butanoyl]pyrrolidine-2-carboxamide] | < 2.5 | > 75
